From US12162861B2, “Dopamine D3 receptor selective antagonists/partial agonists; method of making; and use thereof” (THE UNITED STATES OF AMERICA, AS REPRESENTED BY THE …, priority 2016, dated 2024)

Legend:
[1] = Pharmacokinetics in rats after oral administration; type: in vivo, rat; details: 10 mg/kg oral
Protocol: Male Long-Evans rats with body weights ˜250 grams (Charles River Laboratories, Raleigh, NC, USA) were used in this study. All rats were housed individually in a climate-controlled room under a 12 h light/dark cycle. Food and water were available ad libitum throughout the experiments. All experimental procedures were conducted in accordance with the Guide for the Care and Use of Laboratory Animals and were approved by the Animal Care and Use Committee of the National Institute on Drug Abuse of the U.S. National Institutes of Health. Experimental (oral gavage) procedures: The animals were gently restrained (grasp the animal by the loose skin of the neck and back) to immobilize the head but not such that the animals vocalize or show other signs of distress. Maintained the animal in an upright (vertical) position and passed the gavage needle (19-gauge) along the side of the mouth. Following the roof of the mouth, advanced the needle into the esophagus and toward the stomach. After the needle was passed to the correct length, the compound was injected. […] A volume of 3 μL was injected onto the ultra-performance liquid chromatography (UPLC) instrument for quantitative analysis using a temperature-controlled autosampler operating at 10° C. […] Quantification was performed in multiple-reaction monitoring (MRM) mode. […]

[2] = Phase I metabolic stability in monkey liver microsomes; type: in vitro ADME, rhesus monkey; details: monkey liver microsomes, Phase I
Protocol: Methods: Phase I metabolic stability assay was conducted in rat and rhesus monkey liver microsomes. For phase I metabolism, the reaction was carried out with 100 mM potassium phosphate buffer, pH 7.4, in the presence of NADPH regenerating system (1.3 mM NADPH, 3.3 mM glucose 6-phosphate, 3.3 mM MgCl2, 0.4 U/mL glucose-6-phosphate dehydrogenase, 50 μM sodium citrate). Reactions in triplicate were initiated by addition of the liver microsomes to the incubation mixture (compound final concentration was 10 μM; 0.5 mg/mL microsomes). Negative controls in the absence of cofactors were carried out to determine the specific cofactor-free degradation. Compound disappearance was monitored via LC/MS/MS. Chromatographic analysis was performed using an Accela™ ultra high-performance system consisting of an analytical pump, and an autosampler coupled with TSQ Vantage mass spectrometer (Thermo Fisher Scientific Inc., Waltham MA). […] The mobile phase used was composed of 0.1% Formic Acid in Acetonitrile and 0.1% Formic Acid in H2O with gradient elution, starting with 10% (organic) linearly increasing to 99% up to 2 min, maintaining at 99% (2-2.5 min) and re-equilibrating to 10% by 2.7 min. The total run time for each analyte was 5.0 min.

SMILES	exposures in brain and plasma, R- versus S-enantiomer ([1]; FIG. 12A)	% at 30 min. ([2]; 30 min) [%]	% at 60 min. ([2]; 60 min) [%]	Kp ([1]; male, Long-Evans, rat, brain and plasma, read-out: brain/plasma ratio)
CCc1cc(Cl)c(OC)c(N2CCN(C[C@H](O)CCNC(=O)c3cc4ccccc4[nH]3)CC2)c1 [(R)-29, (R)—N-(4-(4-(3-chloro-5-ethyl-2-methoxyphenyl)piperazin-1-yl)-3-hydroxybutyl)-1H-indole-2-carboxamide]	twice higher exposures in both brain and plasma	9	4	
CCc1cccc(N2CCN(C[C@@H](O)CCNC(=O)c3cc4ccccc4[nH]3)CC2)c1Cl [(S)-19, (S)—N-(4-(4-(2-chloro-3-ethylphenyl)piperazin-1-yl)-3-hydroxybutyl)-1H-indole-2-carboxamide]				6
